From PubChem BioAssay AID256 (DTP/NCI, 2004)
Values joined by “and” are separate entries in the source; they are usually repeats but may differ in a detail not shown here. Identical values can stand only once. Inconclusive results and toxic doses are left out.

Tested on: CD2F1 mice, L1210 leukemia ip, survival T/C
Experiment: NCI In Vivo Anticancer Drug Screen. Data for tumor model L1210 Leukemia (intraperitoneal) in CD2F1 (CDF1) mice
Conditions: higher = longer survival
Procedure, shortened: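 Vehicle-treated tumor-bearing mice served as controls (C) for compound-treated mice (T). Reported figure is T divided by C.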

[1] = endpoint: mean survival time, dose: 100.0 mg/kg/injection, schedule: Q04DX003 (ip), vehicle: saline
[2] = endpoint: mean survival time, dose: 200.0 mg/kg/injection, schedule: Q04DX003 (ip), vehicle: saline
[3] = endpoint: mean survival time, dose: 400.0 mg/kg/injection, schedule: Q04DX003 (ip), vehicle: saline
[4] = endpoint: mean survival time, dose: 25.0 mg/kg/injection, schedule: Q01DX009 (ip), vehicle: saline with Tween-80
[5] = endpoint: mean survival time, dose: 100.0 mg/kg/injection, schedule: Q01DX009 (ip), vehicle: saline with Tween-80

`Nc1nc2c(nc(N3CCCC3)n2C2OC(CO)C(O)C2O)c(=O)[nH]1` (stereo not given) was tested, and the T/C (endpoint: mean survival time, dose: 12.5 mg/kg/injection, schedule: Q01DX005 (ip), vehicle: distilled water + Tween-80) was 100 % of control, the T/C (endpoint: mean survival time, dose: 25.0 mg/kg/injection, schedule: Q01DX005 (ip), vehicle: distilled water + Tween-80) was 102 % of control and the T/C (endpoint: mean survival time, dose: 50.0 mg/kg/injection, schedule: Q01DX005 (ip), vehicle: distilled water + Tween-80) was 98 % of control. For the same compound, the T/C (endpoint: mean survival time, dose: 100.0 mg/kg/injection, schedule: Q01DX005 (ip), vehicle: distilled water + Tween-80) was 100 % of control and the T/C (endpoint: mean survival time, dose: 200.0 mg/kg/injection, schedule: Q01DX005 (ip), vehicle: distilled water + Tween-80) was 100 % of control.

`C/C=C/c1cc2n(c1)C(=O)c1cc(OC3OC(C)C(NC)C(C)(O)C3O)c(C)c(O)c1NC2O` (stereo not given) was tested, and the T/C (endpoint: mean survival time, dose: 4.0 micrograms/kg/injection, schedule: Q01DX009 (ip), vehicle: saline) was 108 % of control and the T/C (endpoint: mean survival time, dose: 8.0 micrograms/kg/injection, schedule: Q01DX009 (ip), vehicle: saline) was 110 % of control.

For `O=C1CCCC2C1CCCC21OCCO1` (stereo not given), the T/C (endpoint: mean survival time, dose: 25.0 mg/kg/injection, schedule: Q04DX003 (ip), vehicle: saline) was 93 % of control, the T/C (endpoint: mean survival time, dose: 50.0 mg/kg/injection, schedule: Q04DX003 (ip), vehicle: saline) was 100 % of control and the T/C [1] was 102 % of control.

`O=[N+]([O-])c1ccc(N/N=C(\CO)c2ccccc2)c([N+](=O)[O-])c1` was tested, and the T/C [1] was 109 % of control, the T/C [2] was 97 % of control and the T/C [3] was 108 % of control.

In the case of `C[N+](C)(CCO)Cc1ccccc1`, the T/C [4] is reported as 102 % of control, the T/C (endpoint: mean survival time, dose: 25.0 mg/kg/injection, schedule: Q04DX003 (ip), vehicle: saline with Tween-80) is reported as 97 % of control and the T/C (endpoint: mean survival time, dose: 50.0 mg/kg/injection, schedule: Q01DX009 (ip), vehicle: saline with Tween-80) is reported as 105 % of control. For the same compound, the T/C (endpoint: mean survival time, dose: 50.0 mg/kg/injection, schedule: Q04DX003 (ip), vehicle: saline with Tween-80) was 100 % of control, the T/C [5] was 105 % of control and the T/C (endpoint: mean survival time, dose: 100.0 mg/kg/injection, schedule: Q04DX003 (ip), vehicle: saline with Tween-80) was 96 % of control and 101 % of control.

With `O=NCC1(Cl)CC2C=CC1C2` (stereo not given) the T/C (endpoint: mean survival time, dose: 6.25 mg/kg/injection, schedule: Q01DX009 (ip), vehicle: saline with Tween-80) was 97 % of control, the T/C (endpoint: mean survival time, dose: 12.5 mg/kg/injection, schedule: Q01DX009 (ip), vehicle: saline with Tween-80) was 98 % of control and the T/C [4] was 98 % of control.

`Cc1cn(CC(=O)C2(O)CCC3C4CCC5=CC(=O)CCC5(C)C4C(=O)CC32C)c(=O)[nH]c1=O` (stereo not given) was tested, and the T/C (endpoint: mean survival time, dose: 12.5 mg/kg/injection, schedule: Q04DX003 (ip), vehicle: Klucel (hydroxypropylcellulose) (HPC)) was 94 % of control, the T/C (endpoint: mean survival time, dose: 25.0 mg/kg/injection, schedule: Q04DX003 (ip), vehicle: Klucel (hydroxypropylcellulose) (HPC)) was 105 % of control and the T/C (endpoint: mean survival time, dose: 50.0 mg/kg/injection, schedule: Q04DX003 (ip), vehicle: Klucel (hydroxypropylcellulose) (HPC)) was 94 % of control. The T/C (endpoint: mean survival time, dose: 100.0 mg/kg/injection, schedule: Q04DX003 (ip), vehicle: Klucel (hydroxypropylcellulose) (HPC)) was 94 % of control and the T/C (endpoint: mean survival time, dose: 200.0 mg/kg/injection, schedule: Q04DX003 (ip), vehicle: Klucel (hydroxypropylcellulose) (HPC)) was 94 % of control.

With `BrCc1cccc2cccnc12` the T/C [5] was 88 % of control, the T/C (endpoint: median survival time, dose: 50.0 mg/kg/injection, schedule: Q04DX003 (ip), vehicle: saline with Tween-80) was 88 % of control and the T/C (endpoint: median survival time, dose: 100.0 mg/kg/injection, schedule: Q04DX003 (ip), vehicle: saline with Tween-80) was 88 % of control.

With `CCCCC(N)C(=O)O` (stereo not given) the T/C (endpoint: mean survival time, dose: 100.0 mg/kg/injection, schedule: Q01DX001 (ip), vehicle: saline with Tween-80) was 104 % of control, the T/C [1] was 105 % of control and the T/C (endpoint: mean survival time, dose: 200.0 mg/kg/injection, schedule: Q01DX001 (ip), vehicle: saline with Tween-80) was 104 % of control. For the same compound, the T/C [2] was 103 % of control, the T/C (endpoint: mean survival time, dose: 400.0 mg/kg/injection, schedule: Q01DX001 (ip), vehicle: saline with Tween-80) was 102 % of control and the T/C [3] was 95 % of control.

`CCCCCc1ccc(C#N)cc1` was tested, and the T/C (endpoint: mean survival time, dose: 50.0 mg/kg/injection, schedule: Q01DX001 (ip), vehicle: saline) was 100 % of control, the T/C (endpoint: mean survival time, dose: 100.0 mg/kg/injection, schedule: Q01DX001 (ip), vehicle: saline) was 97 % of control and the T/C (endpoint: mean survival time, dose: 200.0 mg/kg/injection, schedule: Q01DX001 (ip), vehicle: saline) was 89 % of control. For the same compound, the T/C (endpoint: mean survival time, dose: 400.0 mg/kg/injection, schedule: Q01DX001 (ip), vehicle: saline) was 93 % of control.

For `CCc1c2c(nc3ccc(OC(=O)N4CCC(N5CCCCC5)CC4)cc13)-c1cc3c(c(=O)n1C2)COC(=O)[C@]3(O)CC`, the T/C (endpoint: median survival time, dose: 26.4 mg/kg/injection, schedule: Q04HX004 (iv), vehicle: water) was 177 % of control, the T/C (endpoint: median survival time, dose: 39.6 mg/kg/injection, schedule: Q04DX002 (ip), vehicle: water) was 206 % of control and the T/C (endpoint: median survival time, dose: 39.6 mg/kg/injection, schedule: Q04HX004 (iv), vehicle: water) was 192 % of control. For the same compound, the T/C (endpoint: median survival time, dose: 59.3 mg/kg/injection, schedule: Q04DX002 (ip), vehicle: water) was 231 % of control, the T/C (endpoint: median survival time, dose: 59.3 mg/kg/injection, schedule: Q04HX004 (iv), vehicle: water) was 193 % of control and the T/C (endpoint: median survival time, dose: 89.0 mg/kg/injection, schedule: Q04DX002 (ip), vehicle: water) was 500 % of control. For the same compound, the T/C (endpoint: median survival time, dose: 89.0 mg/kg/injection, schedule: Q04HX004 (iv), vehicle: water) was 209 % of control.

`CC(=O)OCC1=C(COC(C)=O)C2OC1C(OC(C)=O)C2OC(C)=O` (stereo not given) was tested, and the T/C (endpoint: mean survival time, dose: 100.0 mg/kg/injection, schedule: Q04DX002 (ip), vehicle: saline with Tween-80) was 102 % of control, the T/C (endpoint: mean survival time, dose: 200.0 mg/kg/injection, schedule: Q04DX002 (ip), vehicle: saline with Tween-80) was 98 % of control and the T/C (endpoint: mean survival time, dose: 400.0 mg/kg/injection, schedule: Q04DX002 (ip), vehicle: saline with Tween-80) was 94 % of control.
